# Like-named read-outs stand apart in the source and are kept apart here.
# Legend:
# [1] = Study 3: plasma concentration of active substance, single test subject; type: in vivo, human; conditions: for Cmax: read-out: Maximum concentration; for Tmax: read-out: Time of peak concentration; for concentration at 1.5 h: 1.50 h; for concentration at 2.5 h: 2.50 h; for concentration at 3.5 h: 3.50 h
# [2] = Study 2: plasma concentration, HPLC; type: in vivo, human; conditions: for concentration at 0.2 h: 0.20 h; for concentration at 0.5 h: 0.50 h; for concentration at 1.5 h: 1.50 h
# Excerpt: Blood samples were taken at various times.
# clinical = conditions: human, plasma, 1 mg
# Method: More specifically, the studies which follow were carried out on healthy male volunteers in whom the levels of glucose and active substance in the course of time were determined:
# In the interests of more precise clarification, study 5 was carried out (randomised, open, crossover). […] 2 hours after administration a standard breakfast (B) was eaten, 5 hours after administration a standard lunch (L) was eaten and 10 hours after administration a standard dinner (D) was eaten. Blood samples were taken at different times. The glucose concentrations were measured in the plasma as in study 1. […] The plasma concentrations of AG-EE 624 ZW were calculated as the difference between the two concentrations found:
# [3] = human, plasma, po, 2 mg, 2 mg capsule
# [4] = human, plasma, po, 2 mg, 2 mg tablet
smiles,measurement,setting,value
"CCOc1cc(CC(=O)NC(CC(C)C)c2ccccc2N2CCCCC2)ccc1C(=O)O (racemic) [AG-EE 388 ZW, 2-ethoxy-4-[N-[1-(2-piperidino-phenyl)-3-methyl-1-butyl]aminocarbonylmethyl]-benzoic acid]",Active substance concentration,"[1]; 2 mg, 5.00 h",0 ng/mL
same,Active substance concentration,"[1]; 4 mg capsule, 0 h",0 ng/mL
same,Active substance concentration,"[1]; 4 mg, 0.50 h",0 ng/mL
same,Cmax,[1]; [3],82 ng/mL
same,Tmax,"[1]; human, plasma, po, 2 mg",1.75 h
same,Cmax,"[1]; human, plasma, po, 4 mg, 4 mg capsule",150 ng/mL
same,Tmax,"[1]; human, plasma, po, 4 mg",1.5 h
same,concentration at 0.5 h,"[1]; human, plasma, po, 2 mg capsule, 0.50 h",11 ng/mL
same,concentration at 0.75 h,"[1]; human, plasma, po, 2 mg",16 ng/mL
same,concentration at 1 h,"[1]; human, plasma, po, 2 mg",40 ng/mL
same,concentration at 1.25 h,"[1]; human, plasma, po, 2 mg",44 ng/mL
same,concentration at 1.5 h,"[1]; human, plasma, po, 2 mg",68 ng/mL
same,concentration at 1.75 h,"[1]; human, plasma, po, 2 mg",82 ng/mL
same,concentration at 2 h,"[1]; human, plasma, po, 2 mg",82 ng/mL
same,concentration at 2.5 h,"[1]; human, plasma, po, 2 mg",80 ng/mL
same,concentration at 3 h,"[1]; human, plasma, po, 2 mg",72 ng/mL
same,concentration at 3.5 h,"[1]; human, plasma, po, 2 mg",59 ng/mL
same,concentration at 4 h,"[1]; human, plasma, po, 2 mg",32 ng/mL
same,concentration at 0.75 h,"[1]; human, plasma, po, 4 mg",10 ng/mL
same,concentration at 1 h,"[1]; human, plasma, po, 4 mg",72 ng/mL
same,concentration at 1.25 h,"[1]; human, plasma, po, 4 mg",130 ng/mL
same,concentration at 1.5 h,"[1]; human, plasma, po, 4 mg",150 ng/mL
same,concentration at 1.75 h,"[1]; human, plasma, po, 4 mg",148 ng/mL
same,concentration at 2 h,"[1]; human, plasma, po, 4 mg",141 ng/mL
same,concentration at 2.5 h,"[1]; human, plasma, po, 4 mg",119 ng/mL
same,concentration at 3 h,"[1]; human, plasma, po, 4 mg",109 ng/mL
same,concentration at 3.5 h,"[1]; human, plasma, po, 4 mg",84 ng/mL
same,concentration at 4 h,"[1]; human, plasma, po, 4 mg",71 ng/mL
same,concentration at 5 h,"[1]; human, plasma, po, 4 mg, 5.00 h",64 ng/mL
same,concentration at 6 h,"[1]; human, plasma, po, 4 mg, 6.00 h",49 ng/mL
same,concentration at 7 h,"[1]; human, plasma, po, 4 mg, 7.00 h",21 ng/mL
same,concentration at 8 h,"[1]; human, plasma, po, 4 mg, 8.00 h",18 ng/mL
same,Concentration (mean),"[2]; 2 mg capsule, 0 h",0.0 ng/mL
same,Concentration (mean),"[2]; 2 mg capsule, 4.00 h, listed as 388, 240 min",17 ± 5 ng/mL
same,Concentration (mean),"[2]; 2 mg capsule, 5.00 h, listed as 388, 300 min",12 ± 3 ng/mL
same,Concentration (mean),"[2]; 2 mg capsule, 6.00 h, listed as 388, 360 min",8 ± 4 ng/mL
same,Concentration (mean),"[2]; 2 mg capsule, 24.00 h",0.0 ng/mL
same,"Rise and peak of plasma level, tablet versus capsule",[2]; 2 mg p.o.,rises rather more rapidly after administration of the tablet and reaches its peak somewhat earlier
same,Time at which level reaches / falls below the detection limit,[2]; 2 mg p.o.,≥ 6 h
same,Time at which level reaches / falls below the detection limit,"[2]; 2 mg p.o., listed as AG-EE 398 ZW",about 6 hours
same,Maximum concentration,[2]; 2 mg tablet p.o.,83.5 ± 25.5 ng/mL
same,Concentration (mean),"[2]; 2 mg tablet, 0 h",0.0 ng/mL
same,Concentration (mean),"[2]; 2 mg tablet, 4.00 h, 240 min",19.1 ng/mL
same,Concentration (mean),"[2]; 2 mg tablet, 24.00 h",0.0 ng/mL
same,concentration at 0.2 h,[2]; [3],0.9 ng/mL
same,concentration at 0.33 h,[2]; [3],17.5 ng/mL
same,concentration at 0.5 h,[2]; [3],44.9 ng/mL
same,concentration at 0.75 h,[2]; [3],66.4 ng/mL
same,concentration at 1 h,[2]; [3],73.7 ng/mL
same,concentration at 1.5 h,[2]; [3],65.1 ng/mL
same,concentration at 2 h,[2]; [3],50.8 ng/mL
same,concentration at 3 h,[2]; [3],27.9 ng/mL
same,concentration at 4 h,"[2]; human, plasma, po, 2 mg, 2 mg capsule, 4.00 h",16.8 ng/mL
same,concentration at 5 h,"[2]; human, plasma, po, 2 mg, 2 mg capsule, 5.00 h",12.2 ng/mL
same,concentration at 6 h,"[2]; human, plasma, po, 2 mg, 2 mg capsule, 6.00 h",7.8 ng/mL
same,concentration at 9 h,[2]; [3],3.3 ng/mL
same,concentration at 0.2 h,[2]; [4],15 ng/mL
same,concentration at 0.33 h,[2]; [4],55.6 ng/mL
same,concentration at 0.5 h,[2]; [4],75.6 ng/mL
same,concentration at 0.75 h,[2]; [4],83.5 ng/mL
same,concentration at 1 h,[2]; [4],81.3 ng/mL
same,concentration at 1.5 h,[2]; [4],65.9 ng/mL
same,concentration at 2 h,[2]; [4],51.3 ng/mL
same,concentration at 3 h,[2]; [4],32.4 ng/mL
same,concentration at 5 h,"[2]; human, plasma, po, 2 mg, 2 mg tablet, 5.00 h",13.2 ng/mL
same,concentration at 6 h,"[2]; human, plasma, po, 2 mg, 2 mg tablet, 6.00 h",9.5 ng/mL
same,concentration at 9 h,[2]; [4],5.2 ng/mL
same,Cmax,"[2]; human, plasma, po, 2 mg capsule p.o., read-out: Maximum concentration",74 ± 15 ng/mL
same,concentration at 0.08 h,clinical; iv,33.3 ng/mL
same,concentration at 0.17 h,clinical; iv,74.8 ng/mL
same,concentration at 0.25 h,clinical; iv,104 ng/mL
same,concentration at 0.28 h,clinical; iv,102 ng/mL
same,concentration at 0.33 h,clinical; iv,85.6 ng/mL
same,concentration at 0.42 h,clinical; iv,69.6 ng/mL
same,concentration at 0.5 h,clinical; iv,60.1 ng/mL
same,concentration at 0.75 h,clinical; iv,44.2 ng/mL
same,concentration at 1 h,clinical; iv,35.8 ng/mL
same,concentration at 1.25 h,clinical; iv,31.4 ng/mL
same,concentration at 1.5 h,clinical; iv,27 ng/mL
same,concentration at 2 h,clinical; iv,21 ng/mL
same,concentration at 2.5 h,clinical; iv,17.6 ng/mL
same,concentration at 3 h,clinical; iv,13.5 ng/mL
same,concentration at 4 h,clinical; iv,9.4 ng/mL
same,concentration at 5 h,clinical; iv,7 ng/mL
same,concentration at 6 h,clinical; iv,4 ng/mL
same,concentration at 9 h,clinical; iv,1.5 ng/mL
same,concentration at 0.5 h,clinical; po,35.1 ng/mL
